Measured values published in ChEMBL document CHEMBL1201862, “PubChem BioAssay data set” (2004).
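96-well plates; 48 h exposure; 5 concentrations. Endpoints by linear interpolation between flanking doses. Not reached: highest tested concentration assigned. GI50 marks 50% less growth.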 Active and inactive are the calls of the source. Cut-off read from the data, not from the text of the source: active = GI50 up to about 1.1 µM and inactive = higher.

Assays:
Assay in all cases: growth of human tumour cells (NCI), 48 h
HL-60 = system: HL-60
MDA-MB-231 = system: MDA-MB-231
MDA-MB-435 = system: MDA-MB-435
MDA-N = system: MDA-N
MOLT-4 = system: MOLT-4
NCI-H460 = system: NCI-H460
OVCAR-3 = system: OVCAR-3
OVCAR-4 = system: OVCAR-4
PC-3 = system: PC-3
RPMI-8226 = system: RPMI-8226
SF-295 = system: SF-295
SF-539 = system: SF-539
SN12C = system: SN12C
SR = system: SR
SW-620 = system: SW-620
T47D = system: T47D
TK-10 = system: TK-10
UACC-257 = system: UACC-257
UO-31 = system: UO-31
LOX IMVI = system: LOX IMVI

Row | Structure (SMILES) | GI50 (HL-60) | GI50 (MDA-MB-231) | GI50 (MDA-MB-435) | GI50 (MDA-N) | GI50 (MOLT-4) | GI50 (NCI-H460) | GI50 (OVCAR-3) | GI50 (OVCAR-4) | GI50 (PC-3) | GI50 (RPMI-8226) | GI50 (SF-295) | GI50 (SF-539) | GI50 (SN12C) | GI50 (SR) | GI50 (SW-620) | GI50 (T47D) | GI50 (TK-10) | GI50 (UACC-257) | GI50 (UO-31) | GI50 (LOX IMVI)
1 | Cc1ccc(S(=O)(=O)NC(=O)Nc2nc[nH]n2)cc1 | > 100 µM (inactive) | > 100 µM (inactive) | > 100 µM (inactive) | > 100 µM (inactive) | > 100 µM (inactive) | > 100 µM (inactive) | > 100 µM (inactive) | > 100 µM (inactive) | > 100 µM (inactive) | > 100 µM (inactive) | > 100 µM (inactive) | > 100 µM (inactive) | > 100 µM (inactive) | > 100 µM (inactive) | > 100 µM (inactive) | > 100 µM (inactive) | > 100 µM (inactive) | > 100 µM (inactive) | > 100 µM (inactive) | 
2 | COc1cc2c(c3c1c(=O)c1ccccc1n3C)C=C([N+](=O)[O-])C(C)(C)O2 | 0.167 µM (active) | 1.08 µM (active) | 0.0931 µM (active) | 0.114 µM (active) | 0.0861 µM (active) | < 0.0201 µM (active) | > 100 µM (inactive) | > 100 µM (inactive) | > 100 µM (inactive) | > 31.6 µM (inactive) | 0.647 µM (active) | 1.36 µM (inactive) |  | 0.124 µM (active) |  | > 100 µM (inactive) | > 65.2 µM (inactive) | < 0.0454 µM (active) | 0.421 µM (active) | 0.138 µM (active)
3 | Oc1cc(CN2COc3ccccc32)c(O)cc1CNC1CCCCC1 |  | 21.9 µM (inactive) | 24.6 µM (inactive) | 17.7 µM (inactive) | 8.79 µM (inactive) | 17.1 µM (inactive) | 26.2 µM (inactive) | 20.3 µM (inactive) | 19.3 µM (inactive) | 23.8 µM (inactive) | > 100 µM (inactive) | 19.5 µM (inactive) | 30.7 µM (inactive) | 20.1 µM (inactive) | 35.6 µM (inactive) | 26.4 µM (inactive) | 21.6 µM (inactive) | 15 µM (inactive) | 35.4 µM (inactive) | 16.6 µM (inactive)
4 | CC1C/C(=C\c2ccc(OC(=O)C(C)(C)C)cc2)C(=O)/C(=C/c2ccc(OC(=O)C(C)(C)C)cc2)C1 (centres undefined) | 23.5 µM (inactive) | 59.3 µM (inactive) | 46.5 µM (inactive) | 30.5 µM (inactive) | 7.66 µM (inactive) | > 100 µM (inactive) | 68.4 µM (inactive) | 31.4 µM (inactive) | 72.4 µM (inactive) |  | 81.5 µM (inactive) | 39.5 µM (inactive) | 26.2 µM (inactive) | 22.3 µM (inactive) | > 100 µM (inactive) | 59.3 µM (inactive) | > 100 µM (inactive) | > 100 µM (inactive) |  | 35.6 µM (inactive)
5 | COc1ccc(-c2oc3c(CC(=O)O)cccc3c(=O)c2OC)cc1 | > 100 µM (inactive) | > 100 µM (inactive) | > 100 µM (inactive) | > 100 µM (inactive) | > 100 µM (inactive) |  | > 100 µM (inactive) |  | > 100 µM (inactive) |  | > 100 µM (inactive) | > 100 µM (inactive) | > 100 µM (inactive) | > 100 µM (inactive) |  | > 100 µM (inactive) | > 100 µM (inactive) | > 100 µM (inactive) | 0.0809 µM (active) | 
6 | COc1cccc(/C=C2\CCCCCC2=O)c1 |  | > 100 µM (inactive) | 48.1 µM (inactive) | > 100 µM (inactive) | 71.9 µM (inactive) | 52 µM (inactive) | > 100 µM (inactive) | > 100 µM (inactive) | > 100 µM (inactive) | 31 µM (inactive) | > 100 µM (inactive) |  | > 100 µM (inactive) | 26.7 µM (inactive) | > 100 µM (inactive) | > 100 µM (inactive) | > 100 µM (inactive) | > 100 µM (inactive) | 81.5 µM (inactive) | > 100 µM (inactive)
7 | O=C1C(Cl)=C(NCCF)C(=O)c2ncccc21 | 5.11 µM (inactive) | 1.9 µM (inactive) | 0.212 µM (active) | 0.2 µM (active) | 1.55 µM (inactive) | 1.65 µM (inactive) | 2.03 µM (inactive) |  | 1.58 µM (inactive) | 7.08 µM (inactive) | 1.75 µM (inactive) | 1.81 µM (inactive) | 1.91 µM (inactive) | 9.38 µM (inactive) | 1.36 µM (inactive) | 2.2 µM (inactive) | 2.13 µM (inactive) | 1.62 µM (inactive) | 1.32 µM (inactive) | 0.724 µM (active)
8 | Oc1cccnc1CN1CCCCC1 |  | > 100 µM (inactive) | > 100 µM (inactive) | > 100 µM (inactive) | > 100 µM (inactive) | > 100 µM (inactive) | > 100 µM (inactive) | > 100 µM (inactive) | > 100 µM (inactive) | > 100 µM (inactive) | > 100 µM (inactive) | > 100 µM (inactive) | > 100 µM (inactive) | > 100 µM (inactive) | > 100 µM (inactive) | > 100 µM (inactive) | > 100 µM (inactive) | > 100 µM (inactive) | > 100 µM (inactive) | > 100 µM (inactive)
9 | Nc1ccn([C@@H]2C=C(CO)[C@@H](O)[C@H]2O)c(=O)n1 | 0.05 µM (active) | 0.467 µM (active) | 0.05 µM (active) | 0.0353 µM (active) | 0.0501 µM (active) | 0.0593 µM (active) | 2.2 µM (inactive) | 0.216 µM (active) | 0.0555 µM (active) |  | 0.155 µM (active) | 0.254 µM (active) | 0.0546 µM (active) | 0.00946 µM (active) | 0.0849 µM (active) | 0.483 µM (active) | 1.05 µM (active) |  | 0.105 µM (active) | 0.0667 µM (active)
10 | Cc1nc2c(=O)n(-c3ccccc3)c3ccccc3c2o1 | > 100 µM (inactive) | > 100 µM (inactive) | > 100 µM (inactive) | > 100 µM (inactive) | > 100 µM (inactive) | > 100 µM (inactive) | > 100 µM (inactive) | > 100 µM (inactive) | > 100 µM (inactive) | > 100 µM (inactive) | > 100 µM (inactive) | > 100 µM (inactive) | > 100 µM (inactive) |  | > 100 µM (inactive) | > 100 µM (inactive) | > 100 µM (inactive) | > 100 µM (inactive) | > 100 µM (inactive) | > 100 µM (inactive)
11 | CCC(c1ccc2cc(O)ccc2c1)C(C)(C)C(=O)O (centres undefined) |  | > 100 µM (inactive) | > 100 µM (inactive) | > 100 µM (inactive) | > 100 µM (inactive) | > 100 µM (inactive) | > 100 µM (inactive) | > 100 µM (inactive) | > 100 µM (inactive) | > 100 µM (inactive) | > 100 µM (inactive) | > 100 µM (inactive) | > 100 µM (inactive) | > 100 µM (inactive) | > 100 µM (inactive) | > 100 µM (inactive) | > 100 µM (inactive) | > 100 µM (inactive) | > 100 µM (inactive) | > 100 µM (inactive)
12 | CC(=O)OC1COC(Nn2c(=O)[nH]c3ccccc3c2=O)C(OC(C)=O)C1OC(C)=O (centres undefined) | > 100 µM (inactive) | > 100 µM (inactive) | > 100 µM (inactive) | > 100 µM (inactive) | > 100 µM (inactive) | > 100 µM (inactive) | > 100 µM (inactive) |  | > 100 µM (inactive) | > 100 µM (inactive) | > 100 µM (inactive) | > 100 µM (inactive) | > 100 µM (inactive) | > 100 µM (inactive) | > 100 µM (inactive) | 47.1 µM (inactive) | > 100 µM (inactive) | > 100 µM (inactive) | 81.1 µM (inactive) | > 100 µM (inactive)
13 | O=C(CCCN1CCC2(CC1)CC(=O)N(N1CCCCCC1)C2=O)c1ccccc1 | > 100 µM (inactive) | > 100 µM (inactive) | > 100 µM (inactive) | > 100 µM (inactive) | > 100 µM (inactive) |  | > 100 µM (inactive) | > 100 µM (inactive) | > 100 µM (inactive) | > 100 µM (inactive) | > 100 µM (inactive) | > 100 µM (inactive) | > 100 µM (inactive) | 14.2 µM (inactive) |  | > 100 µM (inactive) | > 100 µM (inactive) | > 100 µM (inactive) | > 100 µM (inactive) | > 100 µM (inactive)
14 | O=C1Nc2ccc(Br)cc2/C1=N/NC(=S)Nc1ccc([N+](=O)[O-])cc1 | 1.75 µM (inactive) | 16.7 µM (inactive) | 6.41 µM (inactive) | 7.98 µM (inactive) | 5.31 µM (inactive) | 5.47 µM (inactive) | 6.65 µM (inactive) | 6.11 µM (inactive) | 7.13 µM (inactive) |  | 6.08 µM (inactive) | 20.2 µM (inactive) | 8.02 µM (inactive) | 5.05 µM (inactive) | 6.81 µM (inactive) | 7.45 µM (inactive) | 14.5 µM (inactive) | 14.4 µM (inactive) |  | 8.81 µM (inactive)
15 | Cc1ccc2nc(-c3ccc(-n4c(C)nc(=O)c(-c5ccc(F)cc5)c4C)cc3)sc2c1 | 11.4 µM (inactive) | 14.1 µM (inactive) | 15.1 µM (inactive) | 14.4 µM (inactive) | 7 µM (inactive) |  | 13.9 µM (inactive) | 17.6 µM (inactive) | 12.4 µM (inactive) | 4.06 µM (inactive) | 17.5 µM (inactive) |  | 15 µM (inactive) | 6.12 µM (inactive) | 21.6 µM (inactive) | 3.3 µM (inactive) | 16.1 µM (inactive) | 16.1 µM (inactive) | 15 µM (inactive) | 22.7 µM (inactive)
